Laboratory results as given in US9138659B2, “Compositions, methods, and systems relating to controlled crystallization and/or nucleation of molecular species” (Massachusetts Institute of Technology, priority 2010, dated 2015).
≈ marks a conversion by molar mass, not a printed value.

Experiments:
Assay type in all cases: physicochemical
[1] = Equilibrium partitioning of ASA / ACM into PEGDA and PEGDA-co-AM gels; settings: for increase in κ with modified gels: ACM
Method: This theory is exemplified by quantifying the partitioning of aspirin between the PEGDA gel phase and 38/62 ethanol/water (v/v), and determining the concentration of aspirin in the hydrogel particles. The partitioning experiments were performed at the same solution concentration and temperature as in the nucleation induction time experiments. In the partitioning experiment, both the concentrations of aspirin and ethanol were measured, as there are three species in the bulk solution, namely aspirin, ethanol and water, all of which partition in the gel phase to a certain degree determined by their relative interaction with the PEGDA polymer matrix.
Composition of aspirin solution in the PEGDA gel phase were compared with the bulk phase. PEGDA gels sufficiently large for convenient handling were synthesized by UV polymerization, following the same formulation as the synthesis of PEGDA particles used in the crystallization study. The PEGDA gels were washed with ethanol and vacuum dried to remove unreacted species. The gel was then immersed in excessive 38 mg/ml aspirin solution in 38/62 ethanol/water (v/v) and allowed sufficient time to reach equilibrium swelling at 15° C. before taken out, pad dried, and put in excessive water. After 5 hours immersed in water, the concentrations of aspirin and ethanol in the aqueous phase were analyzed by UV-Vis spectroscopy and Gas Chromatography, respectively.
In FIG. 10: Partitioning of aspirin vs. acetaminophen in the PEGDA gel. Y axis represents the relative API concentration in the PEGDA, normalized by the bulk concentration. The aspirin partitioning experiment was conducted in 38 mg/ml aspirin solution in 38/62 ethanol/water (v/v) at 15° C. As for acetaminophen, 95 mg/ml acetaminophen solution in 38/62 ethanol/water (v/v) was used and the equilibration temperature was 8° C. In both cases, the experimental conditions were kept the same as used in the nucleation induction time study.
Quantification of polymer-solute interactions: The strength of intermolecular interactions between the PEGDA-co-AM polymer network and the molecule to crystallize was characterized with the solute equilibrium partition coefficient at the same condition as used in the crystallization study. Solute partition coefficient κ, defined as the ratio of solute mass fraction in solution confined in the gel to that in the bulk, is a relevant parameter because it informs the solute concentration in the gel at the crystallization condition, which is an important factor affecting nucleation. […] The PEGDA polymers are comprised of the PEG subchain and the acrylate crosslinkers.
Partition coefficient measurements: Partition coefficients of ASA in PEGDA-co-AM gels from its bulk solution were determined as follows. In brief, a series of gels with varying mesh sizes of approximately 5 mm in diameter and 0.5 mm in thickness were synthesized via UV polymerization following the same formula as used in the microgel synthesis. The residue solvent, porogen and monomer molecules were removed by extensive washing with solvent ethanol and subsequent vacuum drying. The dry gels were then immersed in excessive volume of 38 mg/ml ASA solution in 38/62 (v/v) ethanol/water at 15° C. for overnight.

[2] = Nucleation induction time of ASA / ACM with PEGDA or PEGDA-co-AM microgels in 38/62 ethanol/water; settings: for average nucleation induction time τ: ACM S = 3.7; for Average nucleation induction time τ (stretched exponential fit) / τ1 (two-exponential fit) / τ2 (two-exponential fit): ACM
Source text: Nucleation kinetics of model compounds was investigated by measuring the nucleation induction time probability distribution. Nucleation induction time is generally time elapsed prior to the formation of a detectable amount of the new crystalline phase. It is a useful indicator of the surface nucleation activity because it can be dramatically shortened when the presence of an interface lowers the free energy barrier of nucleation. Due to the stochastic nature of nucleation events, a large number of experiments were performed to obtain the probability distribution of nucleation induction time. To obtain the average induction time τ, statistical analysis on the induction time data was conducted based on the understanding that nucleation follows a Poisson distribution. According to Poisson statistics, the probability for a nucleation event to occur beyond time t is P=exp(−t/τ), which implies that the fraction of vials without nucleation at time t exponentially decays as a function of time, where the scaling factor for time is the average induction time.
For determining the statistical analysis of aspirin nucleation induction time with PEGDA particles of various mesh sizes (particles denoted by Mn), 1.9 mL of 38 mg/ml ASA solution in 38/62 ethanol/water (v/v) with 15 μg/mL PEGDA particles was cooled at a rate of 5° C./min from 35° C. to 15° C. to achieve a supersaturation of 2.1. The solution was stirred at 700 rpm. The onset of nucleation was detected by an IR probe which measures the transmission signal through the solution. A total of 10 vials were cycled for 5-10 times to yield 50-100 nucleation induction time measurements for the statistical analysis.
The nucleation rate, J, is given by J=1/τV, where τ the average induction time (Table 1) and V the volume of solution. For this equation to be valid, the assumption is that the crystal growth rate is much faster than the nucleation rate, which is the case for ASA. […] Other crystallization conditions were kept the same.
[…] The solution was stirred at 700 rpm. The onset of nucleation was detected by an IR probe which measures the transmission signal through the solution. A total of 10 vials were cycled for 5-10 times to yield 50-100 nucleation induction time data for the statistical analysis.
Effect of polymer gels on nucleation induction time statistics: To evaluate the impact of polymer-solute interactions on nucleation kinetics, induction times of ASA and ACM were measured with microgels of a series average mesh sizes before and after chemical modification suspended in respective supersaturated solutions. […] For each system, a large number of experiments (50-100) were conducted to obtain the induction time probability distribution. The nucleation induction time generally follows the Poisson distribution. However, deviations can occur, as observed in this study, when there is more than one type of nucleation sites in a sample, giving rise to multiple Poisson processes with different characteristic time scales.
For samples with PEGMDA microgels, the nucleation induction time distributions reported in previous work can be faithfully described by stretched exponentials (Tables 5 and 6), P=exp[−(t/τ)^β], where P is the probability to observe no crystallization event within time t, τ the average induction time. The stretched exponential exponent β served as a measure for the spread of time scales characterizing the nucleation process, or the distribution of kinetic barriers arisen from the heterogeneity of the system. Such heterogeneity can be attributed to the heterogeneity of the polymer microstructure identified using SANS, which resulted from a distribution of nucleation sites arising from spatial variations in both the mesh size and chemical composition of the hydrogel at nanometer length scales. Note that β varies with the average mesh size of the microgel. […]

[3] = Solubility of ASA and ACM; settings: aqueous with cosolvent or surfactant or cyclodextrin; 38/62 (v/v) ethanol/water mixture at 25° C
[4] = PEGDA-co-AM microgels M 130 g/mol
[5] = PEGDA-co-AM microgels M 200 g/mol
[6] = PEGDA-co-AM microgels M 400 g/mol

increase in κ with modified gels ([1]; Mn=130 g/mol): 35%
increase in κ with modified gels ([1]; Mn=700 g/mol): 14%
average nucleation induction time τ ([2]; Bulk (no particles), 38/62 ethanol/water): 6500 ± 1600 min
average nucleation induction time τ ([2]; PEGDA microparticles Mn 130 g/mol): 920 ± 70 min
average nucleation induction time τ ([2]; PEGDA microparticles Mn 200 g/mol): 540 ± 20 min
average nucleation induction time τ ([2]; PEGDA microparticles Mn 400 g/mol): 1720 ± 150 min
average nucleation induction time τ ([2]; PEGDA microparticles Mn 700 g/mol): 6500 ± 1600 min
Average nucleation induction time τ (stretched exponential fit) ([2]; Bulk): 37000 min
Average nucleation induction time τ (stretched exponential fit) ([2]; PEGDA microgels M 130 g/mol): 1600 min
Average nucleation induction time τ (stretched exponential fit) ([2]; PEGDA microgels M 200 g/mol): 480 min
Average nucleation induction time τ (stretched exponential fit) ([2]; PEGDA microgels M 400 g/mol): 5300 min
Average nucleation induction time τ (stretched exponential fit) ([2]; PEGDA microgels M 700 g/mol): 37000 min
τ1 (two-exponential fit) [2, 4]: 55 min
τ2 (two-exponential fit) [2, 4]: 1360 min
τ1 (two-exponential fit) [2, 5]: 88 min
τ2 (two-exponential fit) [2, 5]: 12400 min
τ1 (two-exponential fit) [2, 6]: 70 min
τ2 (two-exponential fit) [2, 6]: 35000 min
promotion of nucleation kinetics when AM co-monomer was introduced into the PEGDA matrix ([2]; PEGDA-co-AM vs PEGDA microgels): up to two orders of magnitude
best enhancement in nucleation kinetics by addition of PEGDA particles ([2]; vs bulk, Table 2): about ten-fold
solubility [3]: 90 mg/mL (≈ 595 mM)
SMILES: CC(=O)Nc1ccc(O)cc1 [acetaminophen]
acetaminophen concentration in PEGDA particles relative to bulk concentration ([1]; 95 mg/ml in 38/62 ethanol/water, 8° C, FIG. 10): approximately twice the bulk concentration
